Assays:
[1] = test system: human CRP40 expression in DRD2 transfected SH-SY5Y human neuroblastoma cells; assay: Western immunoblotting of BQ/human CRP40 expression in DRD2 transfected SH-SY5Y cells; assay type: cell-based; conditions: 100 μM; for BQ expression compared to controls: overnight, DA D2 receptor transfected SH-SY5Y cells
Procedure: The pcDNA 3.1(+) vector was introduced into SH-S Y5 Y cells by lipofection method (Invitrogen Life Science technology. U.S.A.). Briefly, 24 μg of DRD2 plasmid DNA was mixed with 1.5 ml of Opti MEM media and 60 μl of lipofectamine 2000 reagent was added and mixed with 1.5 ml of Opti MEM media and SH-SY5Y cells. Geneticin-resistant clones stably expressing the D2L receptor were screened by a [3H] spirerone-binding assay and was maintained in RPMI medium (RPMI contained 10% fetal bovine serum, 1 mM glutamate, 50 U/ml of penicillin, and 50 U/ml of streptomycin) with 200 μg/ml of geneticin. Cells were grown to confluency (5-6 days following sub-culturing) in fresh RPMI medium.
SH-SY5Y cells were scraped off and this procedure was repeated a second time. The cells were incubated 5 min, centrifuged at 2000 rpm for 5 min and the supernatant was discarded. The pellet was re-suspended in 0.5 ml 0.35M sucrose buffer (wPMSF), homogenized and centrifuged at 1000 g for 10 min. The supernatant was centrifuged and the pellet was re-suspended in a 0.32M sucrose buffer (wPMSF), homogenized, and centrifuged. The pellet was re-suspended 0.053 ml Tris-EDTA PMSF and labeled as nuclear fraction 1. The supernatant was centrifuged and the resulting supernatant was stored and labeled cytosolic fraction 1. The remaining pellet was re-suspended in 0.150 ml Tris-EDT A-PMSF and labeled mitochondrial fraction 1.
The cells were exposed to the neurotransmitter and/or the neuroleptic (antipsychotic) and left overnight. Western immunoblotting with BQ primary antibody was performed, followed by immunoblotting with polyclonal conjugated horseradish peroxidase secondary antibody.

human CRP40 = assay: Immunohistochemistry localization of human CRP40 in post-mortem nucleus accumbens; conditions: post-mortem NA slide of schizophrenic patient treated with large doses of HAL
Procedure: Three slides were chosen from the 60 samples generously donated by The Stanley Foundation. The slides consisted of: 1) control; 2) schizophrenia patient-drug free; 3) schizophrenic patient-15000K, HAL-treated. The slides were incubated with 4% formaldehyde and diluted in PBS for 30 min. Immediately following, washed sections 3 times with PBS for 5 min, each time and dried off each slide as close as possible to the tissue and outlined the section with the hydrophobic pen. The sections were then blocked by incubating sections with 3% normal goat serum*(NGS) (diluted in PBS containing 0.6% Triton X-100) for 1 h. Next, incubated slides with primary human CRP40 polyclonal antibody diluted in PBS containing 0.6% Triton X-100 (and 3% NGS if necessary) overnight at 4° C. (wrapped in aluminum foil). The following day, the slides were washed 3 times with PBS for 5 min, each time, and incubated slides with FITC secondary antibody diluted in PBS containing 0.6% Triton X-100 for 4 h. Next, the sections were washed 6 times in PBS and slides were mounted with appropriate cover-slips and fixed with nail polish.
Three slides containing post mortem brain specimens of the NA were used in immunohistochemistry studies. […] The next day, the slides were analyzed using a confocal microscope (McMaster University).

[2] = biological target: T1, recombinant human CRP40 (BQ-fusion protein) (Homo sapiens, UniProt P38646); assay: [3H]-NPA protein-binding assay with BQ-fusion protein; conditions: 100 μM, third of three NPA entries
T1 construct: a fragment of 720 base pairs (Genbank #BQ224193) was amplified; GST (Schistosoma japonicum glutathione S-transferase, pGEX-2T) (N); made in house; host or cells: E. coli BL21 (pGEX-2T)
T1 sequence (P38646 334-578 E571K/D572N/R574P): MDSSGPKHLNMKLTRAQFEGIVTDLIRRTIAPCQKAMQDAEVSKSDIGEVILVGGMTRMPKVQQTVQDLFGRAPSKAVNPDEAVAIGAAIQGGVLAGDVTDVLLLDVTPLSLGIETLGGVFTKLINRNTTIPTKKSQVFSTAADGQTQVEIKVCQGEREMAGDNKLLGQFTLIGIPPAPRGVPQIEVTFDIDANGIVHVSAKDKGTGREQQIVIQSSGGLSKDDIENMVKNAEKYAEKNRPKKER
Procedure: Briefly, the assays were performed in triplicate and consisted of the following solutions and protocol: 50 mM TRIS, 5.0 mM mgCl2, 1.0 mM EDTA, 0.ImM DTT, 0.ImM PMSF, 100 mg/ml Bacitracin and 5.0 mg/ml soybean trypsin; DA (mw=189.6) was dissolved in 0.1% ascorbic acid; each tube was vortexed briefly and incubated in a shaking water bath at 37° C., for 2 h; receptor binding equipment (Brandel, U.S.A.) washed 3 times with distilled water; then repeated washes in assay buffer, 50 nM TRIS, 1 mM EDTA, pH 7.4; 18 test-tubes were set on the binding platform and fiberglass filter paper was put on the platform. The samples were passed through the filter paper with 3 consecutive washes; placed in the scintillation tubes and 5.0 ml Biodegradable Counting Scintillant was added and radioactive counts were measured (Amersham, U.S.A.).
The first protein binding study involved [3+H]NPA and 3 different concentrations of displacement molecules (DA, NPA), 100 μM, 10 μM and 1 μM, respectively. Following protein binding, DPM counts were performed in a Beckman scintillation counter.

[3] = test system: 6-OHDA lesioned hemi-Parkinson's rat model; assay: Apomorphine-induced turning behaviour after striatal injection; assay type: in vivo; conditions: for apomorphine-induced rotational symptoms: striatal injection on lesioned side
Text: This research study examined the potential of CRP40 as a therapeutic in Parkinson's disease (PD). It has been shown herein that dopamine (DA) can modulate CRP40 expression. Further, knockdown of CRP40 in the medial prefrontal cortex (mPFC) caused deficits in DA-dependant behaviours related to human disease. This study investigated whether the introduction of CRP40 into the lesioned region of a rat model of PD would reduce or reverse symptoms associated with PD compared to control animals. This model is a well-established one in which the nigrostriatal system is hemi-laterally lesioned by injection of the cytotoxin 6-hydroxydopamine (6-OHDA). These animals show phenotypic rotating behaviour as a result of the hemi-lesion.
(§1) The treatment groups were the following: Group 1 (n=3; males) were hemi-lesioned animals treated with a sham injection (CSF) to the Striatum; Group 2 (n=3; males) were hemi-lesioned animals treated with Mortalin2 plasmid injection to the Striatum; Group 3 (n=3; males) were hemi-lesioned animals treated with CRP40 plasmid injection to the Striatum; Group 4 (n=2; males) were hemi-lesioned animals treated with Mortalin2 protein injection to the Striatum; Group 5 (n=2; males) were hemi-lesioned animals treated with CRP40 protein injection to the Striatum; Group 6 (n=3; males) were controls, non-lesioned, and received a CSF injection to the Striatum.
Once the animals were comfortable with the experimenter, they were subjected to a series of behavioural tests for baseline measures. In addition to the apomorphine-induced rotation, other tests included prepulse inhibition (PPI) and locomotor activity tests. The apomorphine-induced rotations test involves giving each animal a subcutaneous injection of apomorphine according to body weight. Since the animals are lesioned hemi-laterally at the nigrostriatal pathway, they show compulsive turning behaviour in a direction contra-lateral to the lesion. For this project, there was interest in the number of rotations each animal made in a ten minute testing period. PPI is a test of sensorimotor gating where animals are exposed to a startling acoustic pulse. This pulse, however, follows a subtle pre-pulse which allows for inhibition of the startle response. Locomotor activity test involves cubic chambers lined with infrared sensors that detect any and all movements made by the animal over a three hour testing period. For this experiment “total distance travelled” measurements were of interest.
Once all baseline data was collected, the rats were placed under gaseous anaesthesia and injected, via cannulae, with one of the five following treatments: CSF sham (Striatal n=3), CRP40 plasmid DNA (Striatal n=3), MOT-2 plasmid DNA (Striatal n=3), CRP40 protein (Striatal n=2), MOT-2 protein (Striatal n=2). […]

[4] = test system: 6-OHDA lesioned hemi-Parkinson's rat model; assay: HPLC of DA levels in SN and striatum; assay type: in vivo; conditions: striatal-injected rats
Text: as §1
Once all baseline data was collected, the rats were placed under gaseous anaesthesia and injected, via cannulae, with one of the five following treatments: CSF sham (Striatal n=3), CRP40 plasmid DNA (Striatal n=3), MOT-2 plasmid DNA (Striatal n=3), CRP40 protein (Striatal n=2), MOT-2 protein (Striatal n=2).
After recovery from surgery, all animals were again tested using the same behavioural methods for post-intervention measures. PPI and locomotor activity were tested at 7 and 14 days post-injection, and apomorphine-induced rotation was tested at various time points between days 2 and 14 post-injection. On day 15 post-injection, all rats were sacrificed. […]

Molecule: NCCc1ccc(O)c(O)c1 [DA, dopamine]
- human CRP40 protein expression in the nuclear fraction relative to control cells ([1]; SH-SY5Y nuclear fraction): significant increase
- BQ expression compared to controls [1]: significant increase

Molecule: O=C(CCCN1CCC(O)(c2ccc(Cl)cc2)CC1)c1ccc(F)cc1 [Haloperidol, haloperidol]
- localization of human CRP40 antibody staining (human CRP40): located almost exclusively within the nucleus
- BQ expression compared to controls [1]: significant increase

Molecule: CCCN1CCc2cccc3c2[C@H]1Cc1ccc(O)c(O)c1-3 [NPA, N-propylnorapomorphine]
- amount of displacement of [3H]NPA [2]: 64.3%

B1: CRP40 protein: 346 amino acid catecholamine-regulated protein, SEQ ID NO: 8 (protein, listed as Homo sapiens)
chain: MDSSGPKHLNMKLTRAQFEGIVTDLIRRTIAPCQKAMQDAEVSKSDIGEVILVGGMTRMPKVQQTVQDLFGRAPSKAVNPDEAVAIGAAIQGGVLAGDVTDVLLLDVTPLSLGIETLGGVFTKLINRNTTIPTKKSQVFSTAADGQTQVEIKVCQGEREMAGDNKLLGQFTLIGIPPAPRGVPQIEVTFDIDANGIVHVSAKDKGTGREQQIVIQSSGGLSKDDIENMVKNAEKYAEEDRRKKERVEAVNMAEGIIHDTETKMEEFKDQLPADECNKLKEEISKMRELLARKDSETGENIRQAASSLQQASLKLFEMAYKKMASEREGSGSSGTGEQKEDQKEEKQ
- apomorphine-induced rotational symptoms ([3]; day 10 post-injection): alleviated
- apomorphine-induced rotational symptoms ([3]; day 14 post-injection): beginning to increase again
- apomorphine-induced rotational symptoms ([3]; days 4 and 7 post-injection): reversal of rotational symptoms
- apomorphine-induced rotational symptoms, overall ([3]; striatal injection, no time point stated): completely reversed
- levels of DA in the SN & striatum (HPLC) [4]: increase in dopamine concentration at both the SN and the striatum
